The test system of data set [1] is Enterococcus faecalis strain 2 (collection). The experiment in a line: MIC/MBC broth-dilution (micromethod), CLSI. To be noted: for MBC: E. FAECALIS strain 2, kills 99,9% of initial population. It is filed as cell-based. The source says:
(§1) Determination of Minimal Inhibitory Concentration (MIC), Minimal Bactericidal Concentration (MBC), bactericidal curves and killing rate on Gram positive and Gram negative bacteria strains, for the evaluation of the bactericidal activity of compounds of example 1 (n. 1 to 14).
(§2) Sensitivity tests have been performed in broth-dilution (micromethod) with the purpose to test the possible bacteriostatic and/or bactericidal power in different compounds, in accordance with CLSI guidelines (Clinical and Laboratory Standards Institute). In details, phenotypic methods based on in vitro MIC and MBC determination have been performed on previously isolated bacterial strains, identified and characterized at the level of their antibiotic susceptibility profile. According to MIC and MBC data, the Killing Rate was calculated as the ratio between MBC and MIC on which basis it is possible to define the compounds tested as bactericides (killing rate=1-4), or bacteriostatic (killing rate >4).
(§3) Preparation of the solution containing molecules: for each molecule to be tested, solutions were made as DMSO Stock, with a concentration of 2.560 mg/ml, used to test 12 dilutions with the following scalar drug concentrations: 512-256-128-64-32-16-8-4-2-1-0.5-0.25 μg/ml. The scalar dilutions were prepared directly on plates by using Mueller Hinton Broth (MHB) as a solvent.
(§4) Bacterial suspension preparation: cryostrains preserved at −80° C. were recovered by incubation in growth medium (Brain Heart Infusion Broth, BHI) for 24-48 hours at 37° C. followed by passages in agar growth medium (Columbia Blood Agar). Colonies with less than 30 hours are suspended in MHB with the purpose to prepare a bacterial suspension with a turbidity of 0.5 MF, containing approximately 1.5×10^8 cfu/ml. This injection is additionally diluted in MHB until reaching a final concentration of 5×10^5 cfu/ml (range 3-7×10^5 cfu/ml). Identical volumes of this bacterial suspension are added on a plate, for each well containing drug scalar dilutions, to obtain a final concentration between 512 a 0.25 μg/ml. The set up of bacterial suspensions as well as the passage on slate has always been performed within 30 minutes, in order not to alter the concentration of the bacterial suspension. Simultaneously, check in broth-microdilution only with solvent (in order to exclude that the effect of growth inhibition might be due to the drug solution solvent), positive growth control in absence of DMSO and drug, and negative purity control only with injection broth are performed. As a consequence the slate is incubated at 37° C. for 24 and 48 hours in aerobes. The 24 hours MIC is considered as the minimum drug concentration able to inhibit bacterial growth, which makes it possible to observe the absence of bacterial growth and the absence of turbidity. The same observations are valid to evaluate 48 hours MIC. After the incubation, an equal volume of bacterial suspension from each well is plated on agar growth medium and incubated for 24-48 hours at a temperature of 37° C. in aerobes, in order to define the MBC after the incubation. The MBC is evaluated as the minimum concentration of drug able to kill the 99,9% of the initial bacterial population.
(§5) Bacterial strains: the bactericidal and/or bacteriostatic power of the synthesized compounds can be determined by using standard reference strains such as: • 1. S. Aureus ATCC 25923 res kan, tob, res streptogramine (sga-sgb, efflux), res mupirocina (at low level), res trimetoprim; • 2. S. Aureus strain 1 (collection) mec a+, res kan tob gen, res quinolones, lincosamides, res streptogramine (sga-sgb), mlsb+sa constituent, mlsb constituent, res mupirocine (low level), res trimetoprim; • 3. S. Aureus strain 2 (collection) acquired penicillinase, res kan tob, res streptogramine (sga-sgb, efflux), res mupirocine (low level), res trimetoprim; • 4. Enterococcus faecalis ATCC 51299 (str+gen res at high level, mlsb res, simil van b res); • 5. […]

For data set [2], the system named is S. Aureus strain 1 (collection) mec a+. Nature of the data set: MIC/MBC broth-dilution (micromethod), CLSI. The format is cell-based. To be noted: Staphylococcus aureus; for MBC: kills 99,9% of initial population.
Text: as §1
In details, phenotypic methods based on in vitro MIC and MBC determination have been performed on previously isolated bacterial strains, identified and characterized at the level of their antibiotic susceptibility profile. According to MIC and MBC data, the Killing Rate was calculated as the ratio between MBC and MIC on which basis it is possible to define the compounds tested as bactericides (killing rate=1-4), or bacteriostatic (killing rate >4).
as §3
as §4, with “The 24 hours MIC is considered as the minimum drug concentration able to inhibit bacterial growth, which makes it possible to observe the absence of bacterial growth and the absence of turbidity.” left out, “incubation.” for “incubation. The MBC is evaluated as the minimum concentration of drug able to kill the 99,9% of the initial bacterial population.”
Bacterial strains: the bactericidal and/or bacteriostatic power of the synthesized compounds can be determined by using standard reference strains such as: • 1. S. Aureus ATCC 25923 res kan, tob, res streptogramine (sga-sgb, efflux), res mupirocina (at low level), res trimetoprim; • 2. S. Aureus strain 1 (collection) mec a+, res kan tob gen, res quinolones, lincosamides, res streptogramine (sga-sgb), mlsb+sa constituent, mlsb constituent, res mupirocine (low level), res trimetoprim; • 3. S. Aureus strain 2 (collection) acquired penicillinase, res kan tob, res streptogramine (sga-sgb, efflux), res mupirocine (low level), res trimetoprim; • 4. Enterococcus faecalis ATCC 51299 (str+gen res at high level, mlsb res, simil van b res); • 5. Enterococcus faecalis strain 1 (collection) (str+kan res at high level str res at high level tetracycline res); • 6. Enterococcus faecalis strain 2 (collection) (kan res at high level); • 7. E. coli of Collection: RESISTANT to ampicilline, amox+ac clav, ampicillinr+sulbactam, cefalexine, cefuroxime, cefuroxime axetil, cefixime, cefpodoxime, cefotaxime, ceftazidime, ceftriaxone, netilmicine, tobramicine, ciprofloxcine, trim/sulfametox, esbl pos, SENSITIVE to meropenem and gentamicine, INTERMEDIATE to amikacine; • 8. 8.

Data set [3] concerns A. baumannii of collection. The experiment in a line: MIC/MBC broth-dilution (micromethod), CLSI. To be noted: Acinetobacter baumannii; for MBC: kills 99,9% of initial population. The format is cell-based.
Text: as §1, §2, §3, §4, §5

In a further data set the test system is E. coli of Collection. The experiment in a line: MIC/MBC broth-dilution (micromethod), CLSI. It is filed as cell-based. To be noted: Escherichia coli.
Text: as §1, §2, §3, §4, §5

In data set [4] the test system is S. Aureus strain 2 (collection). Nature of the data set: MIC/MBC broth-dilution (micromethod), CLSI. It is filed as cell-based. As to conditions: Staphylococcus aureus; for MBC: kills 99,9% of initial population; for MIC: values without asterisk.
Text: as §1, §2, §3, §4, §5

The next data set relates to S. Aureus ATCC 25923. The experiment in a line: MIC/MBC broth-dilution (micromethod), CLSI. To be noted: Staphylococcus aureus; for MBC: ATCC25923, kills 99,9% of initial population. The format is cell-based.
Text: as §1, §2, §3, §4, §5

The subject of data set [5] is Enterococcus faecalis strain 1 (collection). The experiment in a line: MIC/MBC broth-dilution (micromethod), CLSI. The format is cell-based. To be noted: for MBC: E. FAECALIS strain 1, kills 99,9% of initial population.
Text: as §1, §2, §3, §4, §5

The subject of data set [6] is Enterococcus faecalis ATCC 51299. The experiment in a line: MIC/MBC broth-dilution (micromethod), CLSI. As to conditions: for MBC: ATCC51299, E. FAECALIS ATCC 51299, kills 99,9% of initial population; for MIC: ATCC51299, E. FAECALIS ATCC 51299, values without asterisk. The format is cell-based.
Text: as §1, §2, §3, §4, §5

In data set [7] the test system is P. Aeruginosa of collection. The experiment in a line: MIC/MBC broth-dilution (micromethod), CLSI. The format is cell-based. To be noted: Pseudomonas aeruginosa.
Text: as §1, §2, §3, §4, §5

Setting [8] is: E. FAECALIS strain 2, marked *: MIC value read at 48 hours.
[9] abbreviates: E. FAECALIS strain 2, values without asterisk.
The mark [10] stands for this setting: marked *: MIC value read at 48 hours.
The mark [11] stands for this setting: ATCC25923, values without asterisk.
Where [12] appears, read: E. FAECALIS strain 1, marked *: MIC value read at 48 hours.

≈ marks a conversion by molar mass, not a printed value.

Turning to `C/C(=C\c1ccc(-c2ccc(O)c(C34CC5CC(CC(C5)C3)C4)c2)cc1)C(=O)O` [Compound 3, E-2-Methyl-3-[3′-(adamantan-1-yl)-4′-hydroxybiphenyl-4-yl]acrylic Acid], the melting point worked out at 200 °C. Further, the MBC in data set [1] is 8 µg/mL (≈ 20.6 µM). Further, the MIC in [1] (setting [8]) is 0.5 to 1 µg/mL (≈ 1.29 to 2.57 µM). For the same compound, the MBC in data set [2] was 4 to 8 µg/mL (≈ 10.3 to 20.6 µM). The MIC in data set [2] (values without asterisk) worked out at 2 µg/mL (≈ 5.15 µM).

On to `O=C(O)/C(F)=C\c1ccc(-c2ccc(O)c(C34CC5CC(CC(C5)C3)C4)c2)cc1` [Compound 5, E-2-Fluoro-3-[3′-(adamantan-1-yl)-4′-hydroxybiphenyl-4-yl]-acrylic Acid], for which the melting point worked out at 202 °C. Further, in data set [1], the MBC stood at 16 µg/mL (≈ 40.8 µM). The compound also returned an MIC in data set [1] (setting [9]) of 4 µg/mL (≈ 10.2 µM). Moreover, the MBC in data set [2] lay within 8 to 16 µg/mL (≈ 20.4 to 40.8 µM). The compound also registered an MIC in data set [2] (setting [10]) of 2 to 4 µg/mL (≈ 5.1 to 10.2 µM).

`CC(C)(C)ON=Cc1cc(C=CC(=O)O)ccc1-c1ccc(O)c(C23CC4CC(CC(C4)C2)C3)c1` [Compound 12, 3-[3′-Adamantan-1-yl-4′hydroxy-2-tert-butoxyiminomethyl-biphenyl-4-yl]-acrylic acid]: the minimal inhibitory concentration (MIC) in data set [3] was found to be 128 µg/mL (≈ 270 µM); in data set [1] (setting [9]), 2 µg/mL (≈ 4.22 µM); against E. coli of Collection, 256 µg/mL (≈ 541 µM); in [4], 2 µg/mL (≈ 4.22 µM); against S. Aureus ATCC 25923 (setting [11]), 2 µg/mL (≈ 4.22 µM); in data set [5] (E. FAECALIS strain 1, values without asterisk) it was 2 µg/mL (≈ 4.22 µM). Also, the results for the MIC in [6], in [7] and in [2] (setting [10]) were 2 µg/mL (≈ 4.22 µM), 256 µg/mL (≈ 541 µM) and 2 to 4 µg/mL (≈ 4.22 to 8.45 µM), respectively. Further, the MBC in data set [1] was 4 µg/mL (≈ 8.45 µM); in [4], 2 µg/mL (≈ 4.22 µM); in the data set on S. Aureus ATCC 25923, 4 µg/mL (≈ 8.45 µM); in [5], 8 µg/mL (≈ 16.9 µM); in [6], 8 µg/mL (≈ 16.9 µM); in data set [2], 4 µg/mL (≈ 8.45 µM).

Regarding `CON=Cc1cc(/C=C/C(=O)O)ccc1-c1ccc(O)c(C23CC4CC(CC(C4)C2)C3)c1` [Compound 13, 3-[3′-Adamantan-1-yl-4′-hydroxy-2-methoxyimino-methyl-biphenyl-4-yl]-acrylic acid], the minimum inhibitory concentration (MIC) in [3] was 128 µg/mL (≈ 297 µM); in data set [1] (setting [8]), 4 to 8 µg/mL (≈ 9.27 to 18.5 µM); in the data set with E. coli of Collection it was 512 µg/mL (≈ 1190 µM); in data set [4], 4 µg/mL (≈ 9.27 µM); in the data set with S. Aureus ATCC 25923 (setting [11]), 2 µg/mL (≈ 4.63 µM); in [5] (setting [12]) it was 4 to 8 µg/mL (≈ 9.27 to 18.5 µM). Further, the MIC in data set [6] was 8 µg/mL (≈ 18.5 µM); in data set [7], 256 µg/mL (≈ 593 µM); in data set [2] (setting [10]) it was 2 to 4 µg/mL (≈ 4.63 to 9.27 µM). The MBC worked out at 512 µg/mL (≈ 1190 µM) in [3]; 16 µg/mL (≈ 37.1 µM) in data set [1]; 32 µg/mL (≈ 74.2 µM) in data set [4]; 4 µg/mL (≈ 9.27 µM) with S. Aureus ATCC 25923; 16 µg/mL (≈ 37.1 µM) in data set [5]; 32 µg/mL (≈ 74.2 µM) in data set [6]. This compound also registered an MBC in [2] of 4 µg/mL (≈ 9.27 µM).

Take `O=C(O)/C=C/c1ccc(-c2ccc(O)c(C34CC5CC(CC(C5)C3)C4)c2)cc1` [adarotene, reference compound]: the MIC was 128 µg/mL (≈ 342 µM) in data set [3]; 0.5 to 1 µg/mL (≈ 1.34 to 2.67 µM) in data set [1] (setting [8]); 256 µg/mL (≈ 684 µM) against E. coli of Collection; 4 µg/mL (≈ 10.7 µM) in [4]; 4 to 8 µg/mL (≈ 10.7 to 21.4 µM) in the data set with S. Aureus ATCC 25923 (ATCC25923, marked *: MIC value read at 48 hours); 2 to 4 µg/mL (≈ 5.34 to 10.7 µM) in data set [5] (setting [12]). Moreover, the MIC in [6] was 2 µg/mL (≈ 5.34 µM); in [7], 256 µg/mL (≈ 684 µM); in [2] (setting [10]) it was 4 to 8 µg/mL (≈ 10.7 to 21.4 µM). Moreover, the MBC in data set [3] is 512 µg/mL (≈ 1370 µM); in data set [1], 16 µg/mL (≈ 42.7 µM); in data set [4] it was 8 µg/mL (≈ 21.4 µM); against S. Aureus ATCC 25923, 16 µg/mL (≈ 42.7 µM); in [5], 32 µg/mL (≈ 85.5 µM); in data set [6], 32 µg/mL (≈ 85.5 µM). Also, the MBC in [2] worked out at 16 µg/mL (≈ 42.7 µM).

The values are drawn from US20220281835A1, “PHENOL DERIVATIVES FOR USE AS ANTIMICROBIAL, ANTIBACTERIAL, BACTERICIDE” (SPECIAL PRODUCT'S LINE S.P.A., priority 2019, published 2022).
